Assay results published in paper PMC3447978, “High-Throughput 1,536-Well Fluorescence Polarization Assays for α1-Acid Glycoprotein and Human Serum Albumin Binding” (PLoS ONE, 2012).

Assays:
[1] = molecular target: T1, α1-acid glycoprotein (AGP) (Homo sapiens, UniProt P02763); experiment: biochemical
[2] = molecular target: T2, human serum albumin (HSA) (Homo sapiens, UniProt P02768); experiment: biochemical
[3] = molecular target: T1, α1-acid glycoprotein (AGP); experiment: AGP LOPAC1280 1,536-well qHTS screen (FP)
[4] = molecular target: T2, human serum albumin (HSA); experiment: HSA 96-well fluorescence polarization displacement assay (dansyl sarcosine probe, Sudlow Site II)
[5] = molecular target: T1, α1-acid glycoprotein (AGP); experiment: in vitro; settings: human
Description: (§1) This system features the proteins of interest covalently bound to the surface of silica beads through the use of proprietary attachment chemistry. The surface was designed to minimize interactions with drug molecules, thus preventing non-specific binding of test substances.
(§2) AGP or HSA protein-coated beads (Sovicell, Leipzig, Germany; distributed by ADMEcell, Emeryville, CA) were thawed at room temperature for two hours. Stock solutions of each compound were diluted to a final sample concentration of 20 µM or 50 µM. Samples (45 µL) were added to 405 µL of premixed solutions of buffer and AGP or HSA coated beads and mixed thoroughly to keep the beads suspended in solution to allow for the compounds to bind to the protein coated beads, [30]. After centrifuging, 100 µL of supernatant were transferred to a 96-well plate and analyzed on an Agilent 1100 HPLC coupled to a diode array detector.
(§3) After equilibrating the column with 50 mM ammonium acetate buffer/acetonitrile (99%/1%) at a flow rate of 500 µL/min for ∼2 minutes, compounds were detected by initiating a five minute gradient to 100% acetonitrile, held for 3 minutes, followed by a one minute gradient to 1% acetonitrile, where the composition was then maintained for the final three minutes, for a total run time of 12 minutes. The diode array detector channels were set to 230 nm, 260 nm, 300 nm, and 340 nm (bandwidth = 5 nm). Data were evaluated using the Sovicell-supplied Microsoft Excel (Redmond, WA) spreadsheets, [44].

HSA protein-coated beads = HSA protein-coated beads (Homo sapiens, UniProt P02768); experiment: HSA protein-coated bead assay with HPLC analysis; format: binding; settings: compound 50 µM
Sequence of HSA protein-coated beads (P02768 25-609): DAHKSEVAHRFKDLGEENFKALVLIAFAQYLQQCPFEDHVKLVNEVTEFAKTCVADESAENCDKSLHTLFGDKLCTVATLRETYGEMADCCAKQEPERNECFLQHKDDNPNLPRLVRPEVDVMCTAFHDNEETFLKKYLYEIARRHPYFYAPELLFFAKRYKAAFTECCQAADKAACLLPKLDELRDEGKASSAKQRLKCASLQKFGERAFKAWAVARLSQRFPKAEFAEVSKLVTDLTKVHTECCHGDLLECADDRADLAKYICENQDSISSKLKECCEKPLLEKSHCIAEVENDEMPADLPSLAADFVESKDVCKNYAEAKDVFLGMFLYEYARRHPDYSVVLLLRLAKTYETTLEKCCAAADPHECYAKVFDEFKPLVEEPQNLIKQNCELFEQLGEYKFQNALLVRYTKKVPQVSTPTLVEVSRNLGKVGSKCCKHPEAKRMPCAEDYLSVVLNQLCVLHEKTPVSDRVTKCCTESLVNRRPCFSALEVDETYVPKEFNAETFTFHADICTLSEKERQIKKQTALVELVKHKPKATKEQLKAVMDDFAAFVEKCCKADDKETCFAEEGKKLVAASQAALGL
Description: as §1, §2, §3

[6] = molecular target: T1, α1-acid glycoprotein (AGP); experiment: biochemical; remark: listed apart in the source
[7] = molecular target: T2, human serum albumin (HSA); experiment: HSA 1,536-well fluorescence polarization displacement assay (dansyl sarcosine probe, Sudlow Site II); format: binding; design: Albumin solution from human serum (HSA, Sigma-Aldrich, St. Louis, MO); purchased Sigma-Aldrich; host or cells: human serum
Description: For 1,536-well format (Table 2), a 3 µL mixture of HSA and dansyl sarcosine (bound control) or 3 µL of dansyl sarcosine (unbound control) were dispensed into a 1,536-well assay plate using a BioRAPTR. The plate was centrifuged at 1,000 rpm for 15 seconds, covered and incubated for 10 minutes, and FP data were collected on a ViewLux using the optics described above.
FP was measured 15 min after compound addition. Percent inhibition was derived from the bound (i.e., protein-probe complex), or 0% neutral control, and the unbound (i.e., free probe), or 100% displaced control, respectively, by calculating their mean values, and normalizing the data using GraphPad Prism 4.

AGP protein-coated beads = AGP protein-coated beads (Homo sapiens, UniProt P02763); experiment: in vitro; settings: protein-coated bead Kd values
Sequence of AGP protein-coated beads (P02763 19-201): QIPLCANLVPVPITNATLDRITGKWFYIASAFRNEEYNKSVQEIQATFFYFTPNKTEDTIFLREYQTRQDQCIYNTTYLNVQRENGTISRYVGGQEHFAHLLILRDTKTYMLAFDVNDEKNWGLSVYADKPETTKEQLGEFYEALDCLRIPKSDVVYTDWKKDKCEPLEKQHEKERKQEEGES
Description: as §1, §2, §3

[8] = molecular target: T2, human serum albumin (HSA); experiment: in vitro
[9] = AGP 1,536-well Screen IC50, LOPAC1280 screen, top compound concentration 144 µM
[10] = IC50 in AGP LOPAC1280 screen, validation set members present in the LOPAC1280 collection
[11] = read-out: HSA 1,536-well IC50 (extrapolated)

T2 sequence (P02768 25-609): as the sequence (P02768 25-609) above
T1 sequence (P02763 19-201): as the sequence (P02763 19-201) above

Row | Structure (SMILES) | IC50 [1] [µM] | IC50 [2] [µM] | IC50 [4] [µM] | Kd at 2 min, 50 µM [5] [µM] | IC50 [3] [µM] | also measured
1 | Nc1ccc2c3c(cccc13)C(=O)NC2=O [4-Amino-1,8-naphthalimide, 4-amino-1,8-naphthalimide] | 832 | 7.94 | 37 | – | – | IC50 [3, 9]: 11.2 µM
2 | C=CCc1ccccc1OCC(O)CNC(C)C (centres unmarked) [Alprenolol, alprenolol] | 273 | – | 1700 | 33.8 | – | HSA Kd (HSA protein-coated beads): apparent inability to bind to the HSA protein coated beads; IC50 [6]: 276 µM; IC50 ([7]; read-out: HSA 1,536-well IC50): > 1510 µM
3 | Nc1nc(N)c2nc(CNc3ccc(C(=O)N[C@@H](CCC(=O)O)C(=O)O)cc3)cnc2n1 [Aminopterin, aminopterin] | 306 | 8.91 | 22 | – | 56.2 | –
4 | CN(C)CCC=C1c2ccccc2CCc2ccccc21 [Amitriptyline, amitriptyline] | 224 | – | 6750 | 1.89 | – | Ratio (HSA Kd / AGP Kd) (AGP protein-coated beads): 63; Kd (HSA protein-coated beads): 119 µM; IC50 [6]: 221 µM; IC50 ([7]; read-out: HSA 1,536-well IC50): > 1510 µM
5 | CN(C)CCCN1c2ccccc2Sc2ccc(Cl)cc21 [Chlorpromazine, chlorpromazine] | – | – | – | 7.68 | – | IC50 [3, 10]: 44.7 µM
6 | OCCN(CCO)c1nc(N2CCCCC2)c2nc(N(CCO)CCO)nc(N3CCCCC3)c2n1 [Dipyridamole, dipyridamole] | – | 40 | 62.2 | – | – | Kd (HSA protein-coated beads): 35.6 µM; IC50 ([7]; read-out: HSA 1,536-well IC50): > 1510 µM
7 | CN(C)c1cc2c(Nc3ccc4c(cnn4Cc4ccccc4)c3)ncnc2cn1 [GW2974] | – | 7.94 | 4.65 | – | > 144 | –
8 | CN(C)CCCN1c2ccccc2CCc2ccccc21 [Imipramine, imipramine] | – | – | 5200 | 10.4 | – | Ratio (HSA Kd / AGP Kd) (AGP protein-coated beads): 14; Kd (HSA protein-coated beads): 149 µM; IC50 [7, 11]: > 1510 µM
9 | COc1ccc2c(c1)c(CC(=O)O)c(C)n2C(=O)c1ccc(Cl)cc1 [Indomethacin, indomethacin] | – | – | – | 78.8 | – | –
10 | CCCC(=O)NCCc1c2n(c3ccc(OC)cc13)CCCc1ccccc1-2 [K 185] | 10.5 | 56.2 | 83.2 | – | 20 | –
11 | COc1cc2nc(N3CCN(C(=O)OCc4ccccc4)C(C(=O)NC(C)(C)C)C3)nc(N)c2cc1OC [L-765,314] | 2.03 | 70.8 | 5.21 | – | 14.1 | –
12 | O=C1N(c2ccccc2)c2ccccc2C1(Cc1ccncc1)Cc1ccncc1 [Linopirdine, linopirdine] | 21.7 | – | – | – | 35.5 | IC50 ([8]; probe dansyl sarcosine): > 151 µM
13 | CC#C[C@]1(O)CC[C@H]2[C@@H]3CCC4=CC(=O)CCC4=C3[C@@H](c3ccc(N(C)C)cc3)C[C@@]21C [Mifepristone, mifepristone] | 2.51 | – | – | – | – | IC50 ([8]; probe dansyl sarcosine): > 151 µM; IC50 [3, 9]: 6.31 µM
14 | CCC(C)N(C)C(=O)c1cc2ccccc2c(-c2ccccc2Cl)n1 (centres unmarked) [PK 11195] | 23.9 | – | – | – | 22.4 | IC50 ([8]; probe dansyl sarcosine): > 151 µM
15 | CCCCC1C(=O)N(c2ccccc2)N(c2ccccc2)C1=O [Phenylbutazone, phenylbutazone] | > 1000 | – | – | 247 | – | IC50 [6]: 1050 µM
16 | CC(C)NCC(O)COc1cccc2ccccc12 (centres unmarked) [Propranolol, propranolol] | – | – | 5330 | 19.2 | – | Ratio (HSA Kd / AGP Kd) (AGP protein-coated beads): 29; Kd (HSA protein-coated beads): 548 µM; IC50 [3, 10]: 50.1 µM; IC50 ([3]; average IC50, intraplate control, AGP screen, LOPAC1280 screen intraplate control): 48.7 µM; IC50 [7, 11]: > 1510 µM
17 | COc1ccc(C(CN(C)C)C2(O)CCCCC2)cc1 (centres unmarked) [Venlafaxine, venlafaxine] | > 1000 | – | > 1000 | – | > 144 | IC50 [8]: > 151 µM
18 | OCc1ccc(-c2nn(Cc3ccccc3)c3ccccc23)o1 [YC-1] | 4.83 | 44.7 | 5.07 | – | – | IC50 [3, 9]: 5.62 µM
